ChEMBL document CHEMBL4402579, “Identification of Potent In Vivo Autotaxin Inhibitors that Bind to Both Hydrophobic Pockets and Channels in the Catalytic Domain” (J Med Chem, 2020)
Active and inactive are the calls of the source. The rule behind the calls is not given here.

Key:
Autotaxin [1] = target: Autotaxin (Mus musculus, UniProt Q9R1E6); assay: Inhibition of ATX in mouse plasma after 2 hrs by LC-MS/MS analysis; assay type: cell-free
Autotaxin (Mus musculus) [2] = target: Autotaxin (Mus musculus) (UniProt Q9R1E6); assay: Inhibition of ATX in mouse plasma assessed as reduction in LPA prodution at 10 uM after 3 hrs by LC-MS/MS analysis; assay type: cell-free
Mus musculus = assay: In vivo inhibition of ATX in C57BL/6J mouse assessed as reduction in serum LPA level at 4 mg/kg, iv after 15 mins to 3 hrs by LC-MS/MS analysis; assay type: functional, organism-based
Autotaxin (Mus musculus) [3] = target: Autotaxin (Mus musculus) (UniProt Q9R1E6); assay: Inhibition of ATX in mouse plasma assessed as reduction in LPA prodution after 3 hrs by LC-MS/MS analysis; assay type: cell-free
Autotaxin [4] = target: T1, Autotaxin (Homo sapiens, UniProt Q13822); assay: Inhibition of ATX (unknown origin)-mediated cell migration in human MDA-MB-231 cells assessed as reduction in cell motility after 3 hrs by Diff-Quick staining based microplate reader analysis
Danio rerio = species: Danio rerio; assay: Inhibition of AB/TU zebra fish ATX expressed in one-cell stage zebra fish embryos assessed as rescue of carida bifida phenotype at 10 uM incubated for 12 to 24 hrs post fertilization in presence of Ki16425 by whole mount in situ hybridization based microscopic analysis relative to control
Autotaxin (Mus musculus) [5] = target: Autotaxin (Mus musculus) (UniProt Q9R1E6); assay: Inhibition of mouse ATX expressed in one-cell stage zebra fish embryos assessed as rescue of cardia bifida phenotype at 10 uM incubated for 12 to 24 hrs post fertilization in presence of Ki16425 by whole mount in situ hybridization based microscopic analysis relative to control
Autotaxin [6] = target: T1, Autotaxin; assay: Inhibition of ATX (unknown origin) expressed in human HEK293 cells using TG-mTMP as substrate after 2 hrs by fluorescence based plate reader assay

Row | Compound | IC50 (Autotaxin [1]; read-out: IC50) | inhibition (Autotaxin (Mus musculus) [2]) | other results
1 | CCCCCCCn1c(C)cc(=O)n2cc(-c3ccc(Cl)cc3)nc12 | 0.016 µM | Active | 
2 | Cc1cc(O)n2cc(-c3cccc(Br)c3)nc2n1 | > 50 µM | inactive | 
3 | CCOC(=O)Cn1c(C)cc(=O)n2cc(-c3ccc(F)cc3)nc12 | 0.031 µM | inactive | 
4 | Cc1cc(=O)n2cc(-c3ccc(Cl)cc3)nc2n1CC(=O)O | 7.7 µM | inactive | 
5 | CCCCCn1c(C)cc(=O)n2cc(-c3ccc(Cl)cc3)nc12 | 0.0094 µM | Active | inhibition (Mus musculus): Active; inhibition (Autotaxin (Mus musculus) [3]): Dose-dependent effect
6 | CCCn1c(C)cc(=O)n2cc(-c3ccc(Cl)cc3)nc12 | 0.021 µM |  | 
7 | CCCCCCn1c(C)cc(=O)n2cc(-c3ccc(Cl)cc3)nc12 | 0.0099 µM | Active | inhibition (Mus musculus): Active; inhibition (Autotaxin [4]): Dose-dependent effect; inhibition (Autotaxin (Mus musculus) [3]): Dose-dependent effect
8 | CCCCCn1c(C)cc(=O)n2cc(-c3ccc(C)cc3)nc12 | 0.044 µM | Active | 
9 | Cc1cc(O)n2cc(-c3ccc(Br)cc3)nc2n1 | > 50 µM | inactive | 
10 | Cc1cc(=O)n2cc(-c3ccc(Cl)cc3)nc2n1CCS(=O)(=O)O | > 50 µM |  | 
11 | CCOCCn1c(C)cc(=O)n2cc(-c3ccc(Cl)cc3)nc12 | 0.011 µM | Active | 
12 | CCOC(=O)Cn1c(C)cc(=O)n2cc(-c3ccc(I)cc3)nc12 | 0.019 µM |  | 
13 | Cc1cc(O)n2cc(-c3cccc([N+](=O)[O-])c3)nc2n1 | > 50 µM | inactive | 
14 | CCOC(=O)Cn1c(C)cc(=O)n2cc(-c3ccc(Br)cc3)nc12 | 0.013 µM | inactive | 
15 | Cc1cc(=O)n2cc(-c3ccc(Cl)cc3)nc2n1CC(=O)OCc1ccccc1 | 0.056 µM | inactive | 
16 | CCCCCCCN/C=C1\C(=O)N(c2ccc(F)cc2)C(=O)N=C1O |  |  | inhibition (Danio rerio): 1%; inhibition (Autotaxin (Mus musculus) [5]): 94%
17 | Cc1nc2ccccn2c(=O)c1Cc1ccc(Cl)cc1 |  |  | inhibition (Danio rerio): 6%; inhibition (Autotaxin (Mus musculus) [5]): 91%
18 | CCCCCCCCCn1c(C)cc(=O)n2cc(-c3ccc(Cl)cc3)nc12 | 0.12 µM |  | 
19 | Cc1cc(O)n2cc(-c3ccc(Cl)cc3)nc2n1 | > 50 µM | inactive | 

Row | Compound | IC50 (Autotaxin [1]; read-out: IC50) | inhibition (Autotaxin (Mus musculus) [2]) | other results
20 | CCOC(=O)Cn1c(C)cc(=O)n2cc(-c3ccc([N+](=O)[O-])cc3)nc12 | 0.014 µM |  | 
21 | CCN(C)C(=O)Cn1c(C)cc(=O)n2cc(-c3ccc(Cl)cc3)nc12 | 0.22 µM |  | 
22 | CCOC(=O)Cn1c(C)cc(=O)n2cc(-c3ccc(Cl)c(Cl)c3)nc12 | 0.079 µM |  | 
23 | CCNC(=O)Cn1c(C)cc(=O)n2cc(-c3ccc(Cl)cc3)nc12 | 0.37 µM | inactive | 
24 | CCCCn1c(C)cc(=O)n2cc(-c3ccc(Cl)cc3)nc12 | 0.015 µM | Active | 
25 | CCN1CCN(C2=NC(=O)/C(=C/c3ccc(Cl)cc3)S2)CC1 |  |  | inhibition (Danio rerio): 10%; inhibition (Autotaxin (Mus musculus) [5]): 95%
26 | Cc1cc(O)n2cc(-c3ccc([N+](=O)[O-])cc3)nc2n1 | > 50 µM | inactive | 
27 | Cc1cc(O)n2cc(-c3ccc(F)cc3)nc2n1 | > 50 µM | inactive | 
28 | Cc1cc(=O)n2cc(-c3ccc(Cl)cc3)nc2n1Cc1ccccc1 | 0.031 µM | Active | 
29 | Cc1cc(=O)n2cc(-c3ccc(Cl)cc3)nc2n1C1CCCCC1 | 0.073 µM | Active | 
30 | CCOC(=O)Cn1c(C)cc(=O)n2cc(-c3ccccc3)nc12 | 0.072 µM |  | 
31 | CCOC(=O)Cn1c(C)cc(=O)n2cc(-c3cccc([N+](=O)[O-])c3)nc12 | 0.5 µM |  | 
32 | CCC(=O)Cn1c(C)cc(=O)n2cc(-c3ccc(Cl)cc3)nc12 | 0.037 µM | Active | 
33 | Cc1cc(Cl)n2cc(-c3ccc(Cl)cc3)nc2n1 | > 50 µM |  | 
34 | CCCCCCCCCCCCCCCC(=O)n1c(C)cc(=O)n2cc(-c3ccc(Cl)cc3)nc12 |  |  | IC50 (Autotaxin [1]): Nd(Insoluble)
35 | CCOC(=O)Cn1c(C)cc(=O)n2cc(-c3cccc(Br)c3)nc12 | 4 µM |  | 
36 | CCCCCCCCn1c(C)cc(=O)n2cc(-c3ccc(Cl)cc3)nc12 | 0.057 µM |  | 
37 | COc1ccc(-c2cn3c(O)cc(C)nc3n2)cc1 | > 50 µM | inactive | 
38 | CCn1c(C)cc(=O)n2cc(-c3ccc(Cl)cc3)nc12 | 0.04 µM |  | 

Row | Compound | IC50 (Autotaxin [1]; read-out: IC50) | inhibition (Autotaxin (Mus musculus) [2]) | other results
39 | Cc1cc(O)n2cc(-c3ccccc3)nc2n1 | > 50 µM | inactive | 
40 | COC(=O)Cn1c(C)cc(=O)n2cc(-c3ccc(Cl)cc3)nc12 | 0.026 µM | inactive | 
41 | Cc1cc(=O)n2cc(-c3ccc(Cl)cc3)nc2n1CC(=O)OC(C)(C)C | 0.09 µM | inactive | 
42 | Cc1cc(O)n2cc(-c3ccc(Cl)c(Cl)c3)nc2n1 | > 50 µM | inactive | 
43 | Cc1cc(=O)n2cc(-c3ccc(Cl)cc3)nc2n1C | 0.18 µM |  | 
44 | CCOC(=O)Cn1c(C)cc(=O)n2cc(-c3ccc(N)cc3)nc12 | > 10 µM |  | 
45 | Cc1cc(=O)n2cc(-c3ccc(Cl)cc3)nc2n1CC[N+](C)(C)C | > 50 µM |  | 
46 | Cc1ccc(-c2cn3c(O)cc(C)nc3n2)cc1 | > 50 µM | inactive | 
47 | CCOC(=O)Cn1c(C)cc(=O)n2cc(-c3ccc(OC)cc3)nc12 | 0.049 µM | inactive | 
48 | CCCCCn1c(C)cc(=O)n2cc(-c3ccc(F)cc3)nc12 | 0.071 µM | Active | 
49 | CCCCCn1c(C)cc(=O)n2cc(-c3ccc(Br)cc3)nc12 | 0.023 µM | Active | inhibition (Autotaxin (Mus musculus) [3]): Dose-dependent effect
50 | O=C1N=C(N2CCN(Cc3cccc(B(O)O)c3)CC2)S/C1=C\c1ccc(Cl)c(Cl)c1 |  |  | inhibition (Autotaxin (Mus musculus) [5]): 98%; IC50 (Autotaxin [6]): 0.013 µM
51 | COc1cc(C)nc2nc(-c3ccc(Cl)cc3)cn12 | > 50 µM |  | 
52 | CCOC(=O)Cn1c(C)cc(=O)n2cc(-c3cccc(N)c3)nc12 | > 10 µM |  | 
53 | CC(=O)OCn1c(C)cc(=O)n2cc(-c3ccc(Cl)cc3)nc12 | 0.03 µM |  | 
54 | CCCCCCCCCC(=O)n1c(C)cc(=O)n2cc(-c3ccc(Cl)cc3)nc12 | 0.16 µM |  | 
55 | CCOC(=O)Cn1c(C)cc(=O)n2cc(-c3ccc(Cl)cc3)nc12 | 0.0033 µM | inactive | inhibition (Danio rerio): 8%; inhibition (Autotaxin (Mus musculus) [5]): 93%; IC50 (Autotaxin [6]): 0.0042 µM
56 | CN1CCN(C2=NC(=O)/C(=C/c3ccc(Cl)c(Cl)c3)S2)CC1 |  |  | inhibition (Danio rerio): 3%; inhibition (Autotaxin (Mus musculus) [5]): 96%; IC50 (Autotaxin [6]): 0.18 µM
